Laboratory results published in PMC7822874, “Chemoprotective antimalarials identified through quantitative high-throughput screening of Plasmodium blood and liver stage parasites” (Scientific Reports, 2021).
Where two headings read alike, the source gives them in different places.

Columns and labels:
[1] = test system: P. berghei-ANKA-GFP-LucCON liver stage parasites in HepG2-A16-CD81EGFP cells; test: P. berghei liver stage Pb-Luc assay, Method 1 (UCSD, 1536-well); format: cell-based, Plasmodium berghei; conditions: Plasmodium berghei, 48 h, P. berghei liver stage, average of 2 wells on a 1536 well plate; for activity at 1 µM: 1 µM compound treatment (10 mM stocks); for activity at 3 µM: 3 µM compound treatment (10 mM stocks)
[2] = test system: Plasmodium falciparum Dd2 asexual blood stage parasites; test: microbe, parasite or virus in culture; design: species or system Plasmodium falciparum Dd2 in human erythrocytes; single determination (one 11-point concentration-response curve); conditions: Plasmodium falciparum, DD2, Erythrocyte, 72 h; read-out: AC50
[3] = test system: HepG2-A16-CD81EGFP cells; conditions: average of 2 wells; for HepG2 1uM growth rep1 / HepG2 1uM growth rep2: HepG2, 1 µM compound treatment (10 mM stocks); for HepG2 1uM growth rep1 / HepG2 3uM growth rep1: replicate 1, normalized; for HepG2 1uM growth rep2 / HepG2 3uM growth rep2: replicate 2, normalized; for HepG2 3uM growth rep1 / HepG2 3uM growth rep2: HepG2, 3 µM compound treatment (10 mM stocks)
[4] = replicate 1, normalized, read-out: PbLuc 1uM growth rep1
[5] = replicate 2, normalized, read-out: PbLuc 1uM growth rep2
[6] = replicate 1, normalized, read-out: PbLuc 3uM growth rep1
[7] = replicate 2, normalized, read-out: PbLuc 3uM growth rep2

| SMILES | activity at 1 µM [1, 4] [%] | activity at 1 µM [1, 5] [%] | activity at 3 µM [1, 6] [%] | activity at 3 µM [1, 7] [%] | AC50 [2] [µM] | HepG2 1uM growth rep1 [3] [%] | HepG2 1uM growth rep2 [3] [%] | HepG2 3uM growth rep1 [3] [%] | HepG2 3uM growth rep2 [3] [%] |
| --- | --- | --- | --- | --- | --- | --- | --- | --- | --- |
| COc1ccc([C@@]2(C(C)C)ON(c3ccccc3C(F)(F)F)C2=O)cc1 [MLS002206606-01] | 98 | 100 | 88 | 122 | 4.22 | 102 | 93 | 83 | 85 |
| COc1cccc(-c2c(C#N)c(N)nc3c2c(C)nn3-c2ccccc2)c1O [MLS001214341-01] | 118 | 95 | 106 | 118 | 1.5 | 104 | 95 | 90 | 91 |
| CCCC(C)C(=O)Nc1ncc(S(=O)(=O)c2ccc([N+](=O)[O-])cc2)s1 (stereo not drawn) [MLS001034555-01] | 109 | 117 | 105 | 136 | 5.96 | 95 | 92 | 93 | 94 |
| Oc1c(Cl)cc(Cl)cc1CN1CCN(Cc2ccccc2)CC1 [MLS000106505-01] | 108 | 103 | 88 | 103 | 0.668 | 105 | 94 | 90 | 94 |
| CCCCc1c(C)c(C#N)c2nc3ccccc3n2c1Nc1c(C)n(C)n(-c2ccccc2)c1=O [MLS000555448-01] | 131 | 125 | 114 | 127 | 2.66 | 92 | 93 | 87 | 94 |
| O=C(Nc1ccc(S(=O)(=O)N2CCOCC2)cc1)c1cc(-c2cc(Cl)ccc2O)n[nH]1 [MLS000778989-01] | 131 | 90 | 37 | 31 | 2.66 | 107 | 100 | 70 | 76 |
| O=C(c1ccc([N+](=O)[O-])o1)N1CCN(c2nc3c(Cl)cccc3s2)CC1 [MLS001234208-01] | 67 | 72 | 36 | 52 | 4.22 | 103 | 93 | 86 | 94 |
| Cc1ccc(-c2nn(-c3ccccc3)c3[nH]c(=O)c(CNCc4ccccc4)cc23)cc1 [MLS000067457-01] | 76 | 56 | 38 | 42 | 0.422 | 95 | 94 | 91 | 100 |
| C/C(=N\Nc1nc(-c2ccccc2O)nc2ccccc12)c1ccccc1 [MLS000714167-01] | 134 | 124 | 108 | 121 | 0.75 | 91 | 94 | 91 | 97 |
| COc1ccc(Nc2cc(C)nc(NCc3ccccc3)n2)cc1 [MLS000768693-01] | 94 | 74 | 21 | 35 | 13.3 | 90 | 91 | 82 | 84 |
| Cc1cc(N2CCN(C3CCCC3)CC2)n2c(nc3ccccc32)c1C#N [MLS000039270-01] | 103 | 109 | 75 | 112 | 1.06 | 91 | 87 | 89 | 90 |
| COc1cc(O)c(C(CCN2CCCCC2)c2ccc(N(C)C)cc2)c(OC)c1 (stereo not drawn) [MLS000879496-01] | 126 | 95 | 91 | 95 | 2.66 | 108 | 100 | 87 | 98 |
| CCN(CC)CCN1C(=O)c2ccccc2NC1c1ccc(Br)cc1 (stereo not drawn) [MLS000723891-01] | 82 | 70 | 13 | 21 | 1.5 | 103 | 94 | 84 | 91 |
| Cc1cc(C)n(-c2nnc(N3CCN(c4ccccc4)CC3)nn2)n1 [MLS000695202-01] | 122 | 82 | 91 | 76 | 0.596 | 99 | 95 | 90 | 98 |
| COc1cccc(C2C3=C(N=c4sc(=Cc5ccccc5O)c(=O)n42)c2ccccc2CC3)c1OC (stereo not drawn) [MLS000580951-01] | 115 | 99 | 96 | 91 | 2.99 | 91 | 93 | 90 | 96 |
| Cc1ccccc1C1C(C#N)=C2N=C(N)c3c(sc4c3CCCCC4)N2C2=C1C(=O)CCC2 (stereo not drawn) [MLS000543544-01] | 129 | 99 | 79 | 94 | 2.66 | 94 | 95 | 90 | 96 |
| Cc1noc(C)c1CSc1nc2sc3c(c2c(=O)n1C)CCCC3 [MLS000564913-01] | 120 | 107 | 61 | 89 | 8.41 | 92 | 88 | 88 | 92 |
| CC(C)CCN(CCC(C)C)CC(O)Cn1c2ccccc2c(=O)c2ccccc21 (stereo not drawn) [MLS001030199-01] | 128 | 103 | 76 | 87 | 1.88 | 105 | 96 | 84 | 94 |
